This passage reports GI50 and TGI results from PubChem BioAssay (NCI).

Molecules are shown by their SMILES.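 Briefly, cells in 96-well plates were exposed to five compound concentrations for 48 h, and endpoints were estimated by linear interpolation. GI50 is the concentration that inhibits growth by half. TGI: total growth inhibition.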

Assay in all cases: growth of human tumour cells (NCI), 48 h
The subject of assay [1] is MDA-MB-231 breast.
The subject of assay [2] is T-47D breast.
The subject of assay [3] is SK-MEL-5 melanoma.
For assay [4], the system named is SK-MEL-28 melanoma.
The test system of assay [5] is ACHN renal.
The subject of assay [6] is PC-3 prostate.
In assay [7] the test system is K-562 leukemia.
The subject of assay [8] is UACC-257 melanoma.
In assay [9] the test system is U251 CNS.
In assay [10] the test system is CAKI-1 renal.

On to `CC(NC(=O)Cc1ccc(C(F)(F)P(=O)(OCc2ccc([N+](=O)[O-])o2)N(C)CCCCCl)cc1)c1ccc(OCC2CCCCC2)c(C(N)=O)c1` (stereo not given), for which the GI50 in assay [1] was 15.7 µM; in [2] it was 4.33 µM; in assay [3], 6.77 µM; in assay [4], 12.2 µM; in assay [5] it was 8.77 µM; in [6] it was 6.91 µM. For the same compound, the GI50 is 4.5 µM in assay [7], 17.5 µM in [8], 3.33 µM in assay [9] and 15.8 µM in assay [10]. The TGI in [1] is 35.3 µM; in assay [2], 15 µM; in assay [3], 15.5 µM; in [4] it was 25.9 µM; in assay [5] it was 39.3 µM; in [6], more than 34.8 µM. The TGI in assay [7] was 17.9 µM; in assay [8], 34.7 µM; in assay [9] it was 10.9 µM; in [10], 48.4 µM.

`CN(Cc1ccc(F)cc1)c1ccc(CO)c(Cl)c1`: the GI50 in assay [1] is 28.7 µM; in [2], 0.667 µM; in assay [3] it was 8.6 µM; in [4], 31.3 µM; in [5], 28.9 µM; in [6], 20.3 µM. Moreover, the GI50 was 7.99 µM in assay [7], 0.439 µM in assay [8], 4.63 µM in assay [9] and 2.49 µM in assay [10]. In addition, the TGI is more than 100 µM in assay [1]; 4.16 µM in assay [2]; 22.8 µM in assay [3]; more than 100 µM in [4]; more than 100 µM in assay [5]; more than 68.3 µM in [6]. In addition, the TGI in [7] was more than 100 µM; in assay [8], 1.66 µM; in assay [9], 68.5 µM; in assay [10] it was 45.8 µM.

Turning to `COc1ccc(-c2c(C#N)c(N)nc(N3CCOCC3)c2C#N)cc1`, the GI50 in assay [1] is 11 µM; in assay [2], 0.828 µM; in assay [3] it was 19.1 µM; in [4] it was 33.9 µM; in [5] it was 20.2 µM; in assay [6] it was 17.6 µM. In addition, the GI50 was 34.5 µM in assay [7], 23.9 µM in assay [8], 27.4 µM in assay [9] and 13 µM in assay [10]. In addition, the TGI is 35.1 µM in assay [1]; 6.14 µM in assay [2]; 45.9 µM in [3]; more than 100 µM in assay [4]; more than 100 µM in assay [5]; 67.3 µM in [6]. In addition, the TGI in assay [7] was more than 100 µM; in assay [8] it was 82.1 µM; in assay [9], more than 100 µM; in assay [10], 31.8 µM.

Regarding `O=[N+]([O-])c1cc([As](Br)c2ccc(O)c([N+](=O)[O-])c2)ccc1O`, the TGI in assay [1] was determined as 3.11 µM; in [2], 0.557 µM; in assay [3], 3.1 µM; in [4] it was 3.31 µM; in assay [5] it was 3.77 µM; in [6] it was 3.64 µM. Besides, the TGI in [7] is more than 23.2 µM; in assay [8] it was 3.33 µM; in [9] it was 4.47 µM; in assay [10], 3.42 µM.

As for `CCn1cc(/C=C2\Oc3cc(OCC#N)ccc3C2=O)c2cc(OC)ccc21`, the GI50 in [1] is 1.47 µM; in [2], 0.961 µM; in assay [3], 0.204 µM; in [4], 6.71 µM; in assay [5], 0.847 µM; in assay [6] it was 0.218 µM. For the same compound, the GI50 in assay [7] was 0.0888 µM; in [8], 57.8 µM; in assay [9] it was 0.425 µM; in assay [10], 0.0663 µM. Further, the TGI was more than 77.3 µM in [1]; more than 100 µM in [2]; 4.17 µM in assay [3]; more than 100 µM in assay [4]; more than 100 µM in assay [5]; 53.8 µM in assay [6]. Moreover, the TGI in assay [7] is more than 100 µM; in [8], more than 100 µM; in [9], more than 48.7 µM; in assay [10], 28.9 µM.

With `CC(C)(C)[Si](C)(C)OC1[C@@H](CNC(N)=O)O[C@@H](n2cnc3c(NC(=O)Nc4ccccc4)ncnc32)[C@H]1O[Si](C)(C)C(C)(C)C` (stereo not given in full), the GI50 in assay [1] is 5.49 µM; in assay [2], 7.56 µM; in assay [3], 6.82 µM; in assay [4], 6.71 µM; in assay [5], 2.42 µM; in assay [6], 0.814 µM. Besides, the GI50 in assay [7] was 1.06 µM; in [8], 5.36 µM; in assay [9], 1.89 µM; in assay [10], 1.76 µM. For the same compound, the TGI was determined as 12 µM in assay [1]; 14.2 µM in assay [2]; 13.5 µM in assay [3]; 14 µM in assay [4]; 8.62 µM in [5]; 1.99 µM in [6]. In addition, the TGI in assay [7] amounted to 2.13 µM; in [8] it was 12.1 µM; in assay [9], 7.93 µM; in [10], 7.12 µM.

As for `C=C(CN1CCc2c([nH]c3ccccc23)C1)c1ccc(C(=O)Nc2ccccc2N)cc1`, the GI50 was 2.74 µM in [1]; 8.5 µM in assay [2]; 2.61 µM in [3]; 2.25 µM in assay [4]; 1.74 µM in [5]; 1.41 µM in assay [6]. Moreover, the GI50 is 1.01 µM in assay [7], 3.2 µM in assay [8], 1.42 µM in assay [9] and 1.67 µM in [10]. Further, the TGI in [1] amounted to 12.9 µM; in [2], 50 µM; in [3], 6.88 µM; in [4], 16.1 µM; in [5] it was 10.4 µM; in assay [6], 29.9 µM. For the same compound, the TGI in [7] is 17 µM; in [8], 11.6 µM; in assay [9], 7.73 µM; in assay [10], 8.25 µM.

For the compound `COc1ccc2c(c1)CN([C@@H](C)[C@H]1CC[C@H]3[C@@H]4CC[C@H]5C[C@@H](O)CC[C@]5(C)[C@H]4CC[C@]13C)CO2`, the TGI was 5.19 µM in assay [1]; 18.3 µM in assay [2]; 3.28 µM in assay [3]; 5.98 µM in assay [4]; 11.2 µM in assay [5]; 7.46 µM in [6]. The TGI in [7] amounted to 2.37 µM; in assay [8], 6.31 µM; in assay [9], 3.35 µM; in assay [10] it was 13.8 µM.

Turning to `c1ccc(-c2nc3n(c2-c2ccc4c(c2)OCO4)CCC3)nc1`, the GI50 in assay [1] is 4.25 µM; in assay [2], 7.99 µM; in [3], 2.05 µM; in assay [4] it was 9.29 µM; in assay [5], 0.993 µM; in [6], 6.75 µM. The GI50 in assay [7] was 5.49 µM; in assay [8], 7.45 µM; in assay [9], 6.96 µM; in assay [10], 0.62 µM. For the same compound, the TGI in assay [1] is more than 25 µM; in assay [2] it was more than 23.4 µM; in assay [3], 8.86 µM; in assay [4] it was more than 22.8 µM; in assay [5], more than 25 µM; in assay [6], more than 25 µM. Further, the TGI was more than 25 µM in [7], 21.9 µM in assay [8], more than 25 µM in assay [9] and more than 25 µM in assay [10].

As to `N=c1ccc2nc3ccc(N)cc3sc-2c1`, the GI50 in assay [1] is 3.56 µM; in assay [2] it was 4.05 µM; in assay [3], 1.7 µM; in [4], 13.1 µM; in assay [5] it was 8.55 µM; in [6] it was 2.56 µM. Besides, the GI50 in assay [7] is 4.47 µM; in assay [8], 2.75 µM; in [9] it was 3.45 µM; in assay [10] it was 4.19 µM. Also, the TGI in [1] was found to be 20.3 µM; in assay [2], 18.8 µM; in assay [3], 3.53 µM; in assay [4], 32.6 µM; in [5], 23.2 µM; in assay [6] it was 15.6 µM. The TGI came out at 74.9 µM in assay [7], 11.1 µM in assay [8], 10.5 µM in assay [9] and 20.3 µM in assay [10].

`O=C(Nc1cccc2[nH]c(C(F)(F)F)nc12)c1cc(Cl)ccc1Cl`: the GI50 is 2.43 µM in assay [1]; 1.84 µM in [2]; 1.77 µM in assay [3]; 4.95 µM in assay [4]; 2.88 µM in [5]; 3.1 µM in assay [6]. Moreover, the GI50 was 3.71 µM in assay [7], 3.34 µM in [8], 3.47 µM in assay [9] and 2.7 µM in assay [10]. In addition, the TGI in assay [1] is 6.71 µM; in assay [2], 6.43 µM; in assay [3], 3.45 µM; in assay [4] it was 35.4 µM; in [5], 16.6 µM; in assay [6], 92.9 µM. Further, the TGI in [7] was more than 100 µM; in [8], 12.3 µM; in [9], 14.1 µM; in [10], 31.3 µM.

Turning to `COc1ccc(/C=C2/C(=O)N(C(=O)c3ccccc3O)N=C2C)cc1`, the TGI in [1] was more than 100 µM; in assay [2], more than 100 µM; in assay [3] it was 9.56 µM; in [4] it was more than 100 µM; in assay [5], more than 100 µM; in assay [6] it was more than 100 µM. For the same compound, the TGI is more than 100 µM in assay [7], more than 100 µM in [8], more than 100 µM in [9] and 51 µM in [10].
